A value given as a limit tells only on which side of the number the result lay.

65 compounds from US20180044343A1, “BICYCLIC IMIDAZOLO DERIVATIVE” (Sumitomo Dainippon Pharma Co., Ltd., priority 2015, published 2018) can be followed below.

The target of the experiment is PDE1B (Homo sapiens, UniProt Q01064). Put plainly: In vitro HTRF PDE1 inhibition assay (PDE1B). Type of experiment: biochemical. As to conditions: in vitro PDE1B HTRF Assay; read-out: IC50.
PDE1B, sequence (Q01064 whole entry): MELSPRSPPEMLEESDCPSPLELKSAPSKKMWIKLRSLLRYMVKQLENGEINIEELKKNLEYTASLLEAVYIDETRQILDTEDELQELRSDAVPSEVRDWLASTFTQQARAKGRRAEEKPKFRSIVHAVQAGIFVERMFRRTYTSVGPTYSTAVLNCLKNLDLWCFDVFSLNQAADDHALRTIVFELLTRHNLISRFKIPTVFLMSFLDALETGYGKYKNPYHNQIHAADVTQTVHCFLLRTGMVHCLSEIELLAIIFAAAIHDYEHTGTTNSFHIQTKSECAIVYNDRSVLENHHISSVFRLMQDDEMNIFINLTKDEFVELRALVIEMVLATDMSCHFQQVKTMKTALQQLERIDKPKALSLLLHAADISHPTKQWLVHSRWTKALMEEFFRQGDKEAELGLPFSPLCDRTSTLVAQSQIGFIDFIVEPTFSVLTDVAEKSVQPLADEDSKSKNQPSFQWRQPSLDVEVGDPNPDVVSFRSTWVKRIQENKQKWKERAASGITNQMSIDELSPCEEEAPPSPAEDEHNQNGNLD

Regarding `Cn1c(O[C@H]2CC[C@H](C)CC2)nn2c(C3CCOCC3)ncc2c1=O` [Example 254, 3-Methyl-2-[(trans-4-methylcyclohexyl)oxy]-7-(tetrahydro-2H-pyran-4-yl)imidazo[5,1-f][1,2,4]triazin-4(3H)-one], the IC50 was below 1 µM. With `COc1nn2c(C3CCOCC3)ncc2c(=O)n1Cc1ccncc1` [Example 281] the figure was 1 to 10 µM. For `CCc1ccc(CNc2nn3c(C(C)C)ncc3c(=O)n2C)nc1` [Example 159], the IC50 was below 1 µM. Consider `CCn1c(OCCCc2ncccc2F)nn2c(C3CCOCC3)ncc2c1=O` [Example 65], for which the IC50 was below 1 µM. `COc1ccc(CNc2nn3c(C(C)C)ncc3c(=O)n2C)nc1` [Example 135, 2-{[(5-Methoxypyridin-2-yl)methyl]amino}-3-methyl-7-(propan-2-yl)imidazo[5,1-f][1,2,4]triazin-4(3H)-one]: the IC50 is below 1 µM.

As for `Cn1c(OCc2ccc(C(F)(F)F)cc2)nn2c(C3CCOCC3)ncc2c1=O` [Example 292], the IC50 was below 1 µM. With `CCn1c(OCC2CCC2)nn2c(C3CCOCC3)ncc2c1=O` [Example 86] the figure was below 1 µM. With `CC(C)c1ncc2c(=O)n(C)c(OCC(F)(F)F)nn12` [Example 9] the figure was below 1 µM; with `Cn1c(OC[C@H]2CC[C@H](C(F)(F)F)CC2)nn2c(C3(O)CCOCC3)ncc2c1=O` [Example 326, 7-(4-hydroxytetrahydro-2H-pyran-4-yl)-3-methyl-2-{[trans-4-(trifluoromethyl)cyclohexyl]-methoxy}imidazo[5,1-f][1,2,4]triazin-4(3H)-one], 1 to 10 µM. Take `Cn1c(OC[C@H]2CC[C@@H](C(F)(F)F)CC2)nn2c(C3CCOCC3)ncc2c1=O` [Example 248, 3-methyl-7-(tetrahydro-2H-pyran-4-yl)-2-{[cis-4-(trifluoromethyl)cyclohexyl]methoxy}-imidazo[5,1-f][1,2,4]triazin-4(3H)-one]: the IC50 was below 1 µM. To `Cc1ccc(OCc2nn3c(C4CCCC4)ncc3c(=O)n2C)cc1` [Example 227] belongs 1 to 10 µM; to `CC(C)c1ncc2c(=O)n(C)c(N(C)Cc3ccccn3)nn12` [Example 163], 1 to 10 µM. With `CC(C)Cn1c(OCC2CCC(F)(F)CC2)nn2c(C3CCOCC3)ncc2c1=O` [Example 96] the figure was below 1 µM.

As for `CCn1c(OCCc2ccc(F)cc2)nn2c(C3CCOCC3)ncc2c1=O` [Example 70], the IC50 was below 1 µM. To `CCn1c(OCCCc2ccccn2)nn2c(C3CCOCC3)nc(Cl)c2c1=O` [Example 118] belongs below 1 µM. To `Cn1c(CN2Cc3ccccc3C2=O)nn2c(C3CCCC3)ncc2c1=O` [Example 231, 7-Cyclopentyl-3-methyl-2-[(1-oxo-1,3-dihydro-2H-isoindol-2-yl)methyl]imidazo[5,1-f][1,2,4]triazin-4(3H)-one] belongs below 1 µM; to `O=c1c2cnc(C3CCOCC3)n2nc(N2CCCC2)n1CC1CCOCC1` [Example 214], 10 to 100 µM.

In the case of `CO[C@@H]1CCN(c2nn3c(C4CCOCC4)ncc3c(=O)n2C)C1` [Example 188], the IC50 was below 1 µM.

With `CC(C)c1ncc2c(=O)n(C)c(NCc3ccc(C#N)cc3)nn12` [Example 142], the IC50 is below 1 µM. Turning to `COCCN1CCCN(c2nn3c(C4CCOCC4)ncc3c(=O)n2C)CC1` [Example 220, 2-[4-(2-Methoxyethyl)-1,4-diazepan-1-yl]-3-methyl-7-(tetrahydro-2H-pyran-4-yl)imidazo[5,1-f][1,2,4]triazin-4(3H)-one], the IC50 lay within 10 to 100 µM. With `Cn1c(OCc2ccc(Cl)cc2)nn2c(C3CCOCC3)ncc2c1=O` [Example 28] the figure was below 1 µM; with `CO[C@H]1CCN(c2nn3c(C4CCOCC4)ncc3c(=O)n2C)C1` [Example 187], below 1 µM; with `COCCn1c(N2CCCC2)nn2c(C3CCOCC3)ncc2c1=O` [Example 210], 10 to 100 µM. With `Cn1c(O[C@H]2CC[C@H](O)CC2)nn2c(C3CCOCC3)ncc2c1=O` [Example 301] the figure was below 1 µM.

Regarding `CO[C@H]1CC[C@H](Oc2nn3c(C4CCOCC4)ncc3c(=O)n2C(C)C)CC1` [Example 311], the IC50 was below 1 µM.

In the case of `CCn1c(OC2CCCC2)nn2c(C3CCOCC3)ncc2c1=O` [Example 300], the IC50 was below 1 µM. Take `CC(C)c1ncc2c(=O)n(C)c(OCc3ccccn3)nn12` [Example 12]: the IC50 was below 1 µM. With `Cn1c(OC[C@H]2CC[C@H](C(F)(F)F)CC2)nn2c(C3=CCCCC3)ncc2c1=O` [Example 329, 7-(Cyclohex-1-en-1-yl)-3-methyl-2-{[trans-4-(trifluoromethyl)cyclohexyl]-methoxy}imidazo[5,1-f][1,2,4]triazin-4(3H)-one] the figure was 1 to 10 µM; with `CCn1c(OCCc2ccc(C(F)(F)F)cc2)nn2c(C3CCOCC3)ncc2c1=O` [Example 78], below 1 µM; with `CCCn1c(N2CCCC2)nn2c(C3CCOCC3)ncc2c1=O` [Example 199], below 1 µM.

With `COc1nn2c(C3CCOCC3)ncc2c(=O)n1CCC(F)(F)F` [Example 276], the IC50 is 1 to 10 µM. With `CCn1c(NCc2ccc(C)nc2)nn2c(C(C)C)ncc2c1=O` [Example 176] the figure was below 1 µM. To `Cn1c(NCCc2ccccn2)nn2c(C3CCOCC3)ncc2c1=O` [Example 182] belongs below 1 µM; to `CCn1c(OCC2(C)COC2)nn2c(C3CCOCC3)ncc2c1=O` [Example 58], below 1 µM. With `CC(C)c1ncc2c(=O)n(C)c(NC3CCCc4cc(C#N)ccc43)nn12` (centres unmarked) [Example 148], the IC50 is below 1 µM.

As to `CCn1c(OCC2(c3ccc(Cl)cc3)CC2)nn2c(C3CCOCC3)ncc2c1=O` [Example 76], the IC50 was below 1 µM.

For the compound `Cc1nn2c(C3CCOCC3)ncc2c(=O)n1CC1CCC(F)(F)CC1` [Example 237, 3-[(4,4-Difluorocyclohexyl)methyl]-2-methyl-7-(tetrahydro-2H-pyran-4-yl)imidazo[5,1-f][1,2,4]triazin-4(3H)-one], the IC50 is below 1 µM.

Take `CC(C)c1ncc2c(=O)n(C)c(NCc3ccc(Cl)cc3F)nn12` [Example 146]: the IC50 is below 1 µM. Take `COc1nn2c(C3CCOCC3)ncc2c(=O)n1CC1CCCC1` [Example 274]: the IC50 was below 1 µM.

For `CCn1c(NCc2ccc(C#N)cn2)nn2c(C(C)C)ncc2c1=O` [Example 175], the IC50 was below 1 µM. `O=c1c2cnc(C3CCOCC3)n2nc(N2CCCC2)n1CC1CC1` [Example 206, 3-(Cyclopropylmethyl)-2-(pyrrolidin-1-yl)-7-(tetrahydro-2H-pyran-4-yl)imidazo[5,1-f][1,2,4]triazin-4(3H)-one]: the IC50 is 1 to 10 µM. To `COc1ccc(CCc2nn3c(C4CCOCC4)ncc3c(=O)n2C)cc1` [Example 243, 2-[2-(4-Methoxyphenyl)ethyl]-3-methyl-7-(tetrahydro-2H-pyran-4-yl)imidazo[5,1-f][1,2,4]triazin-4(3H)-one] belongs below 1 µM. For the compound `Cn1c(OC2CCC(F)(F)CC2)nn2c(C3CCOCC3)ncc2c1=O` [Example 303], the IC50 was below 1 µM.

Consider `O=c1[nH]c(N2CCCC2c2ccc(Cl)cc2)nn2c(C3CCOCC3)ncc12` (centres unmarked) [Example 129], for which the IC50 is below 1 µM. To `Cn1c(OC[C@H]2CC[C@H](CO)CC2)nn2c(C3CCOCC3)ncc2c1=O` [Example 290] belongs below 1 µM; to `CC(C)c1ncc2c(=O)[nH]c(N3CCC[C@@H]3c3ccc(Cl)cc3)nn12` [Example 125, 2-[(2R)-2-(4-chlorophenyl)pyrrolidin-1-yl]-7-(propan-2-yl)imidazo[5,1-f][1,2,4]triazin-4(3H)-one], below 1 µM; to `CCn1c(NCc2ccc(C)cn2)nn2c(C(C)C)ncc2c1=O` [Example 170], below 1 µM. To `Cn1c(OCc2ccc(-c3ccc(F)cn3)cc2)nn2c(C3CCOCC3)ncc2c1=O` [Example 53] belongs below 1 µM; to `O=c1[nH]c(N2CCC[C@H]2c2ccccc2)nn2c(C3CCOCC3)ncc12` [Example 126], below 1 µM. To `O=c1c2cnc(C3CCOCC3)n2nc(N2CCCC2)n1CC1CCC1` [Example 211] belongs 10 to 100 µM. Turning to `Cn1c(OCC2CC(F)(F)C2)nn2c(C3CCOCC3)ncc2c1=O` [Example 33], the IC50 is below 1 µM. With `Cn1c(OCc2ccc(F)cc2)nn2c(C3CCOCC3)nc(Cl)c2c1=O` [Example 117, 5-Chloro-2-[(4-fluorobenzyl)oxy]-3-methyl-7-(tetrahydro-2H-pyran-4-yl)imidazo[5,1-f][1,2,4]triazin-4(3H)-one] the figure was below 1 µM; with `Cn1c(OCc2ccc(-c3ccc(F)cc3)cc2)nn2c(C3CCOCC3)ncc2c1=O` [Example 51], 1 to 10 µM. To `COc1nn2c(C3CCOCC3)ncc2c(=O)n1Cc1ccc(C)cc1` [Example 264] belongs below 1 µM; to `Cn1c(OCCCc2ccccn2)nn2c(C3CCOCC3)ncc2c1=O` [Example 31], below 1 µM. Consider `CC(C)c1ncc2c(=O)n(C)c(NCc3ncccc3F)nn12` [Example 160], for which the half-maximal inhibitory concentration (IC50) was below 1 µM.

As for `CN(C)C(=O)C1CCN(c2nn3c(C4CCOCC4)ncc3c(=O)n2C)CC1` [Example 194], the IC50 lay within 1 to 10 µM.

Regarding `CCn1c(OCc2ccc(-c3ccc(C)cc3)cc2)nn2c(C3CCOCC3)ncc2c1=O` [Example 81], the IC50 was below 1 µM. With `O=c1c2cnc(C3CCOCC3)n2nc(OCC2CCC(F)(F)CC2)n1C1CC1` [Example 95] the figure was below 1 µM; with `CCn1c(OCc2ccc(-c3ccc(C(F)(F)F)cc3)cc2)nn2c(C3CCOCC3)ncc2c1=O` [Example 84], below 1 µM; with `COC[C@H]1CC[C@H](Oc2nn3c(C4CCOCC4)ncc3c(=O)n2C)CC1` [Example 316], below 1 µM. To `COc1nn2c(C3CCOCC3)ncc2c(=O)n1Cc1ccc(F)cc1` [Example 108] belongs below 1 µM; to `CCOC[C@H]1CC[C@H](COc2nn3c(C4CCOCC4)ncc3c(=O)n2CC)CC1` [Example 289], below 1 µM; to `O=c1c2cnc(C3CCOCC3)n2nc(N2CCCC2)n1CC1CCCC1` [Example 212], 10 to 100 µM. To `Cc1ccc([C@H]2CCCN2c2nn3c(C(C)C)ncc3c(=O)n2C)cc1` [Example 165] belongs below 1 µM.
